Source: patent US20100168146A1, “Composition Comprising (R)-Spiro[L-Azabicyclo[2.2.2]Octane-3,2'(3'H)-Furo[2,3-B]Pyridine (AZD0328) and its Use in the Treatment of Alzheimer's Disease, ADHD or Cognitive Dysfunction” (priority 2008, published 2010)
“Also recorded” adds a separate entry of the source.

Columns and labels:
[1] = Predicted human PK / exposure (allometric scaling of rat and monkey data)
Method: The 50% bioavailability of AZD0328 in human was conservatively selected based on the observations from rat, dog and monkey.
Given the findings in the 1 month repeated dose toxicology studies in the rats, it is reasonable to set human systemic exposure limits following single dose administration equal to the exposure observed at NOAEL for renal tubule vacuolation. The corresponding human equivalent dose, based on the FDA guidance (via allometric scaling of body surface area) is, 0.35 mg/kg. A dose of 0.03 mg/day is proposed as a starting dose.

[2] = test system: dogs; assay: Maximum tolerated dose and 7 days oral toxicity; type: in vivo; settings: dog
Method: Single doses of 4.5 to 17 mg/kg were administrated to test AZD0328 to 2 male and 2 female dogs. […] Signs of nausea and at the higher doses vomiting was seen. In the 7 days repeated dose study 2 male and 2 female dogs were given 35 mg/kg per day. However, vomiting was the major clinical sign recorded during the study.

[3] = test system: Ames test; assay: Ames test; type: cell-based
Source text: The genotoxic potential of AZD0328 has been evaluated in the Ames test and in the Mouse lymphoma test. AZD0328 was not mutagenic in either of these tests.

[4] = test system: rhesus monkeys; assay: Intravenous self-administration (reinforcing potential)
Source text: The compound was compared with cocaine and saline for its ability to maintain intravenous self-administration in the monkeys under a lever-press induced drug infusion schedule.

[5] = test system: rats; assay: Modified Irwin screen; type: in vivo; settings: Wistar rat, oral gavage, up to 4 h postdose
Method: The effects of AZD0328 were assessed in the modified Irwin screen, a behavioural, neurological and overt toxicity scoring protocol battery designed to detect a wide range of side effects (Table 3). The findings in the Irwin screen serve as a gross indication of CNS-mediated effects.

[6] = test system: guinea pigs; assay: Cardiac repolarisation in anesthetised guinea pig (MAP); type: in vivo; settings: highest dose, total plasma concentration 8.5 μM
Method: Effects of AZD0328 on ventricular repolarisation and intracardiac conduction were investigated in 6 anesthetised and ventilated guinea pigs (Table 3). For the electrophysiological characterisation, monophasic action potentia MAP duration at 90% repolarisation (MAPD90), ventricular conduction velocity (MAP rise time), and atrioventricular (AV) conduction time were recorded during cardiac pacing. AZD0328 had dose-dependent effects on the electrophysiological activities in the guinea pig heart. At the highest dose, resulting in a total plasma concentration of 8.5 μM, MAPD90 and AV conduction time were prolonged by 20% and 13%, respectively. It is concluded that AZD0328 delayed ventricular repolarisation in the anesthetised guinea pig by 10% at a total plasma concentration of 2.4 μM.

[7] = test system: rhesus monkeys; assay: Spatial delayed response (SDR) task; type: in vivo, rhesus monkey (macaca mulatta)
Source text: AZD0328 at low doses improved performance in the spatial delayed response test in monkeys. Rhesus monkeys were trained in a spatial delayed response task. In this task, food-motivated monkeys observed one of several spatially-displaced wells being baited with a food reward. After a brief delay during which a shutter is drawn and the wells are covered, the monkey must indicate the position of the baited well to receive the food reward. The performance of groups of monkeys was titrated into a narrow range by changing the number of wells or the duration of the delay. Monkeys were tested extensively to establish baseline performance before being administered drug or vehicle. Intramuscular administration of 0.00048 or 0.0016 mg/kg AZD0328 evoked a sustained increase in the percentage of correct responses monkeys made when compared with responses of vehicle-treated monkeys.
Rhesus monkey were trained in a spatial delayed response task. Middle doses of AZD0328 (0.0016 and 0.00048 mg/kg im) evoked a sustained improvement in rhesus monkey performance, while a higher dose (0.48 mg/kg) and a lower dose (0.000016 mg/kg) transiently impaired performance of the task (Table 2).

[8] = Single oral dose PK in healthy human volunteers (Table A); type: in vivo
Method: Total oral doses of AZD0328 in the range 0.025-0.68 mg produced mean plasma concentrations of 0.6-15 nM, consistent with the range of plasma concentrations found to be associated with improved performance in the spatial delayed response test in monkeys. Total oral doses of AZD0328 in the range 0.005-2 mg produced mean plasma concentrations of 0.17-43.9 nM, within the range of plasma concentrations found to be associated with improved performance in rodent models.

[9] = test system: human hepatocytes; assay: Hepatocyte incubations (metabolites); type: in vitro ADME; settings: four separate batches of human hepatocytes
Method: Pyridinyl methylation of AZD0328 was a unique polar metabolite (M2) observed in dog hepatocytes. Other minor hydroxylation/oxidation and glucuronide conjugation products were detected in monkey, dog, rat, and guinea pig hepatocyte incubations and mini-pig hepatic microsome incubations. […] Analysis of plasma and urine samples from either orally or iv dosed rats confirmed N-oxide product of AZD0328 was a main product in the excretion and circulation. The percentage of AZD0328 N-oxide in the plasma from male rats was much higher than from females.

[10] = test system: fimbria formix transected rats; assay: Fimbria formix transected rat model (DNMTP, DRL, LTP); type: in vivo
Method: Previously, AZD0328 has been described, for example in U.S. Pat. No. 6,110,914 and counterpart worldwide patents, as an α7 agonist. In a widely used model of cognitive dysfunction using fimbria formix transected rats challenged to perform Delayed Non-Match to Position or Differential Reinforcement of Low Rates of Responding tasks, agonistic doses of 1 mg per kg and higher of AZD0328 effectively compensated for the acetylcholine deficiencies of these animals. These doses were associated with plasma concentrations at which AZD0328 acts as an agonist at α7 receptors in vitro. However, lower concentrations were ineffective in these model systems.
The potency of AZD0328 to activate α7 receptors in these in vitro preparations was in the micromolar range. […] For example, 1 or 3 mg/kg of AZD0328 reversed deficits in hippocampal long-term potentiation or response accuracy in two different cognitive tests in fimbria-formix lesioned animals (delayed non-match to position and differential reinforcement of low rates of responding). The minimum effective dose of 1 mg per kg necessary to reverse deficits in the rat fimbria formix model produced plasma concentrations in the range 0.29-1.4 μM in the rat, consistent with the range of concentrations required to activate α7 responses in vitro.

[11] = single oral 0.025 mg, geometric mean
[12] = single oral 0.075 mg, geometric mean
[13] = single oral 0.23 mg, geometric mean
[14] = single oral 0.68 mg, geometric mean
[15] = single oral 1.35 mg, geometric mean
[16] = single oral 2 mg, geometric mean

## c1cnc2c(c1)C[C@@]1(CN3CCC1CC3)O2 [AZD0328, (R)-Spiro[1-azabicyclo[2.2.2]octane-3,2′(3′H)-furo[2,3-b]pyridine]]
[1]
  Predicted free human therapeutic plasma level: 0.5 to 1.7 nM
[1]; NOAEL for renal tubule vacuolation
  Human equivalent dose of the rat NOAEL (allometric scaling of body surface area): 0.35 mg/kg
[1]; human
  Bioavailability in human, conservatively selected: 50%
[2]
  Dose with slight QT prolongation (ECG): ≥ 8.6 mg/kg
[3]
  Mutagenicity / genotoxicity: not genotoxic; also recorded: not mutagenic
[4]; initial dose-finding study
  iv bolus dose after which one monkey died within minutes: receiving 34.8 mg/kg as iv bolus
[4]; rhesus monkey, iv infusion 0.384, 1.15 and 3.84 mg/kg/infusion
  Reinforcing effect: did not display reinforcing properties; also recorded: No reinforcing effect seen at any
[4]; rhesus monkey, not greater than saline
  Self-administration level: 0.2-1.7 infusions per session
[5]
  Dose with sedation: 129.8 mg/kg up to 4 h postdose.
[6]
  AV conduction time prolongation: 13%
  MAPD90 prolongation: 20%
[7]; four of nine monkeys improved at middle doses
  Duration of improved performance after a single dose: more than one month
[7]; rhesus monkeys
  Lower doses with no effect or transient impairment: ≥ 0.00016 mg/kg
[7]; rhesus monkeys, 0.016 mg/kg
  Percent correct responses: non-significant increase
[8]; single oral 0.005 mg, geometric mean (% CV)
  Cmax/Dose: 0.007 (24)
[8]; [11]
  AUC/Dose: 0.053
  CL/F: 19.0 L/h
  Cmax/Dose: 0.006
[8]; [12]
  AUC/Dose: 0.049
  Cmax/Dose: 0.006
[8]; [13]
  AUC/Dose: 0.061
  Cmax/Dose: 0.006
  t1/2: 6.7 h
[8]; [14]
  AUC/Dose: 0.046
  Cmax/Dose: 0.005
  t1/2: 6.0 h
[8]; [15]
  AUC/Dose: 0.054
  Cmax/Dose: 0.005
[8]; [16]
  AUC/Dose: 0.046
  CL/F: 22.0 L/h
  Cmax/Dose: 0.005
[9]
  Metabolites in hepatocyte incubations: no metabolites were detected
[10]
  Minimum effective dose: 1 mg per kg
